{"source": "paper PMC7002685", "about": "“Inhibition of vascular calcification by inositol phosphates derivatized with ethylene glycol oligomers” (Nature Communications, 2020)", "key": {"[1]": {"assay": "18F-NaF micro-PET/CT uptake on calcified human aortic valves ex vivo", "type": "binding", "procedure": "To investigate (OEG2)2-IP4 interaction with calcified tissues in a clinically relevant context, a competitive binding assay using ^18F-NaF was applied on severely calcified human femoral arteries and native aortic valves ex vivo. […] First, ^18F-NaF uptake was measured on tissue samples treated with vehicle (human serum) and thereafter, using the same tissue samples, treated with (OEG2)2-IP4 in serum.\nTriplicate aliquots of CPP2s (20 µg Ca/mL) in 100 μL assay buffer (100 mM HBS, pH 7.4 (RT)) were incubated for 1 h at RT in the presence of increasing concentrations of compounds in 50 μL Milli-Q water and ^18F-NaF (1 nM) in 50 μL assay buffer, resulting in a total incubation volume of 200 μL (^18F-NaF was prepared using a FASTlab synthesizer (GE Healthcare, Little Chalfont, UK) and commercially available ^18F-NaF cassettes (GE Healthcare)). Maximum radiotracer binding was determined by incubating CPP2s with ^18F-NaF (1 nM) only. The reaction was terminated by rapid filtration through a SOLAμ™ SPE plate (HRP 2 mg/mL 96-well plate, 22 μm; Thermo Fisher Scientific). SPE individual column matrices were washed twice rapidly in assay buffer and radioactivity on the filters determined by an automatic gamma counter (Wizard2 Gamma Counter, Perkin Elmer, Waltham, MA, USA). […]"}, "[2]": {"assay": "Serum PTH and FGF-23 in adenine model", "type": "in vivo, rat", "from_the_text": "However, clearly the bone mineralization may be affected by the mode of action. The effects of the compound on the bone is not sufficiently investigated, and this limitation not sufficiently discussed, since similar to the adenin model, CKD patients may be the prime patient population for treatment. The bone structure should be documented by µCT. Is there an effect of the compound on the mechanical properties? Am I missing the effects of the compound on bone in healthy animals – this would seem decisive?\nIn response to the reviewer’s comment we investigated the (3D) bone structure of vehicle and (OEG2)2-IP4 treated CKD animals by µCT analysis and compared the results to that of bone samples from control (non-CKD) male Wistar rats of the same age. […]\nbecause of (1) ethical considerations (aiming to limit the number of animals), (2) the primary end-point of the study was to evaluate the effect of (OEG2)2-IP4 on the development of vascular calcification, which was of no relevance for control (non-CKD) animals as they do not develop vascular calcification. […]\nIn response to the reviewer’s comment we measured concentrations of PTH and FGF-23 in the serum of CKD animals of vehicle and (OEG2)2-IP4 groups both at baseline and at sacrifice. […]"}, "[3]": {"details": "uremic rats, 4 h i.v. infusion of 50 mg/kg; cited from earlier work"}}, "note": "Several values for one entry are separate records, joined by “and”; a condition that tells them apart may be missing. Identical values can stand only once."}
{"smiles": "COCCOCCO[C@@H]1[C@@H](OP(=O)(O)O)[C@H](OCCOCCOC)[C@@H](OP(=O)(O)O)[C@@H](OP(=O)(O)O)[C@H]1OP(=O)(O)O", "note": "[(OEG2)2-IP4, 4,6-Di-O-(methoxy-diethyleneglycol)-myo-inositol-1,2,3,5-tetrakis(phosphate)]", "values": [{"measurement": "change of 18F-NaF uptake vs vehicle", "setting": "[1]; 8.6 μM in human serum", "result": "−33", "unit": "%"}, {"measurement": "maximum average 18F binding (18F-NaF-PET)", "setting": "[1]; IC90 concentration in human serum, individual samples Fig. 3k, unit not given", "result": "547.591 and 685.802 and 706.308"}, {"measurement": "serum PTH levels", "setting": "[2]; 5, 15, 50 mg/kg", "result": "did not differ between treatment groups"}, {"measurement": "serum FGF-23 compared to vehicle", "setting": "[2]; lowest (5 mg/kg) dose", "result": "significantly higher"}]}
{"smiles": "O=P(O)(O)O[C@H]1[C@H](OP(=O)(O)O)[C@@H](OP(=O)(O)O)[C@H](OP(=O)(O)O)[C@@H](OP(=O)(O)O)[C@H]1OP(=O)(O)O", "note": "[IP6, myo-Inositol hexakisphosphate]", "values": [{"measurement": "reduction in serum calcium levels", "setting": "[3]", "result": 17, "unit": "%"}]}
